“Also recorded” adds a separate entry of the source.

The values that follow come from article PMC10880893, “Structures of the holoenzyme TglHI required for 3-thiaglutamate biosynthesis” (Structure (London, England : 1993), 2023).

In data set [1] the test system is TglHI. The format is biochemical, Pseudomonas syringae pv. maculicola ES4326. The procedure:
TglHI protein and H2O2 (or EDTA) were initially incubated together for 10 min, and then protein was purified by size exclusion chromatography to remove excess H2O2 (or EDTA). The reaction between the H2O2 (EDTA)-treated TglHI and minimum substrate analog of TglA-Cys, β-NAD^+, and FDH was then monitored for the levels of NADH.
(A) In vitro activity assay of the modification of the minimum substrate analog of TglA-Cys by TglHI with treatment of H2O2 in the presence of formate dehydrogenase (FDH) and β-NAD+. NADH formation was […]
(B) In vitro activity assay of the modification of the minimum substrate analog of TglA-Cys by TglHI with […]
treatment of EDTA (5 mM, 10 mM, 20 mM).

For data set [2], the target named is TglHI holoenzyme (Pseudomonas syringae pv. maculicola ES4326). The data set can be described thus: ITC. On the technique in general: Isothermal titration calorimetry measures the heat released or taken up as one component is titrated into another.
A short description of data set [3]: Solubility on (co-)expression in E. coli, SDS-PAGE. The format is physicochemical. Particulars: expression in E. coli BL21, SDS-PAGE. The procedure:
The tglH (NCBI accession No. WP_007252215.1) and tglI (NCBI accession No. WP_007252216.1) genes from Pseudomonas syringae pv. maculicola (P. syringae) ES4326 were codon-optimized for expression in E. coli (the optimized sequences are provided in KRT) and subcloned into the pRSFDuet-1 vector. E. coli BL21 (DE3) cells containing the tglHI-pRSFDuet-1 plasmid were grown in Luria broth (LB) medium at 37 °C and 220 rpm to an optical density at 600 nm (OD600) of 0.6. Fe-containing TglHI proteins were obtained by the addition of 1 mM (NH4)2Fe(SO4)2 in LB medium. Subsequently, cultures were induced at 16 °C with the addition of isopropyl β-D-thiogalactoside (IPTG) at a final concentration of 0.2 mM. […] After cell lysis, lysates were centrifuged at 18000 rpm for 30 min to obtain the supernatant containing the target protein. […] The purity of the purified proteins was assessed using sodium dodecyl sulfate‒polyacrylamide gel electrophoresis (SDS‒PAGE) and they were flash-frozen with liquid nitrogen for subsequent crystallization and biochemical analysis. […]
(B) The tglH and tglI genes were inserted into the pRSF-DuET-1 vector for co-expression, and the complexes were purified through nickel affinity columns. […] The proteins were then eluted and analyzed by SDS-PAGE. […]

With `O=C(O)CN(CCN(CC(=O)O)CC(=O)O)CC(=O)O` [EDTA], in data set [1] (EDTA 5 mM, 10 mM, 20 mM, 10 min incubation, then size exclusion chromatography), the “TglHI activity after treatment with EDTA” value is given as “merely attenuated the enzymatic activity of TglHI instead of abolishing the activity”. Further, the “effect of higher EDTA concentrations on TglHI” value in data set [1] (higher concentrations than 5, 10, 20 mM) is “precipitation”.
With `OO` [H2O2], the “TglHI activity after pretreatment with H2O2” value in data set [1] (10 min incubation, then size exclusion chromatography, NADH at 340 nm) is given as “background; also recorded: loss of TglHI activity”.
Regarding “TglA-Cys analog containing the C-terminal 19 amino acids (peptide)”, the Kd in data set [2] amounted to 8.5 µM.

B1: TglI: recruitment subunit with RRE domain (protein)
chain: MEAEQVWKLWRRVLRDERLQAQLFSATDATHWLSGFSESESKILSVYAQQFDRVKWFVENYQFRLVNSFLNALETGAPLSLRALLHINVDLNAQSKAFLRDRQWRDYGPQVYTYCEDVLGFLAEADELQGYPEILDLMRLERESVRLYRGLVDPESLPADNRYQRTSMARLYETRFALSGWLRQKDQLGLTRLPESTEHVLIYLPTLQARHKFTLINAQAARLYNCLEQPQSAAGLFMLINSDSASVPGSADLALLDRLEQLNAIRKPL
Regarding B1, the “solubility of protein / complex” value in data set [3] was “insoluble when expressed alone and only soluble when co-expressed with TglH”.

B2: TglH: Fe-dependent DUF692 catalytic subunit (protein)
chain: MPDFVKPAPIGVGIQYNPEILDWFPFEDIQVDILEILLDNIMAPMDGPQIIKPSAQAMIERLGQKFTLLAHSNYGCDFGFSALEETAAVQRHVPLAKMLNSPWVANHCFYGDQSWLDIWSSPIQFSAAEVARCADRAQSLQTLYGMPLAHENAAYYLECPGAEMREAEFLARLVQRSGTFLHLDLHNIYTNHLNLKGFDLKDYMDTLPLDKVISVHLAGGSWHGGLYHDWHDACVPEPVWDLYEDLLSRAQPSAVILEYQGQAHHAQTRIMDASDESMIVRDVQRAQAIWSRYNRHPQERQYGS
As to B2, the “solubility of protein / complex” value in data set [3] was “expressed partially in soluble form”.

For orientation: Kd means the equilibrium constant for the complex coming apart. Lower therefore signals higher affinity.
